In PubChem BioAssay AID248 (DTP/NCI, 2004):
Values joined by “and” are separate entries in the source; they are usually repeats but may differ in a detail not shown here. Identical values can stand only once. Inconclusive results and toxic doses are left out. Cut-off read from the data, not from the text of the source: active = T/C of 150% or more; inactive = T/C below 125%.

Tested on: L1210 leukemia ip in BDF1 mice, survival T/C
Assay: NCI In Vivo Anticancer Drug Screen. Data for tumor model L1210 Leukemia (intraperitoneal) in B6D2F1 (BDF1) mice
Settings: endpoint: mean survival time, higher = longer survival
How it was run: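 Mice bearing the transplanted tumor received compound or vehicle. Survival of the treated group was divided by that of the vehicle-treated control group to give the ratio.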

[1] = dose: 25.0 mg/kg/injection, schedule: Q01DX009 (ip), vehicle: Klucel (hydroxypropylcellulose) (HPC)
[2] = dose: 50.0 mg/kg/injection, schedule: Q01DX009 (ip), vehicle: Klucel (hydroxypropylcellulose) (HPC)
[3] = dose: 50.0 mg/kg/injection, schedule: Q01DX009 (ip), vehicle: saline with Tween-80
[4] = dose: 100.0 mg/kg/injection, schedule: Q01DX009 (ip), vehicle: saline with Tween-80
[5] = dose: 200.0 mg/kg/injection, schedule: Q01DX009 (ip), vehicle: saline with Tween-80
[6] = dose: 100.0 mg/kg/injection, schedule: Q01DX009 (ip), vehicle: saline sonified
[7] = dose: 200.0 mg/kg/injection, schedule: Q01DX009 (ip), vehicle: saline sonified
[8] = dose: 400.0 mg/kg/injection, schedule: Q01DX009 (ip), vehicle: saline sonified
[9] = dose: 50.0 mg/kg/injection, schedule: Q01DX001 (ip), vehicle: saline
[10] = dose: 100.0 mg/kg/injection, schedule: Q01DX001 (ip), vehicle: saline
[11] = dose: 200.0 mg/kg/injection, schedule: Q01DX001 (ip), vehicle: saline
[12] = dose: 400.0 mg/kg/injection, schedule: Q01DX001 (ip), vehicle: saline
[13] = dose: 100.0 mg/kg/injection, schedule: Q04DX003 (ip), vehicle: Klucel (hydroxypropylcellulose) (HPC)
[14] = dose: 200.0 mg/kg/injection, schedule: Q04DX003 (ip), vehicle: Klucel (hydroxypropylcellulose) (HPC)
[15] = dose: 100.0 mg/kg/injection, schedule: Q01DX009 (ip), vehicle: saline
[16] = dose: 200.0 mg/kg/injection, schedule: Q01DX009 (ip), vehicle: saline
[17] = dose: 25.0 mg/kg/injection, schedule: Q04DX003 (ip), vehicle: Klucel (hydroxypropylcellulose) (HPC)
[18] = dose: 50.0 mg/kg/injection, schedule: Q04DX003 (ip), vehicle: Klucel (hydroxypropylcellulose) (HPC)
[19] = dose: 100.0 mg/kg/injection, schedule: Q01DX009 (ip), vehicle: Klucel (hydroxypropylcellulose) (HPC)
[20] = dose: 200.0 mg/kg/injection, schedule: Q01DX009 (ip), vehicle: Klucel (hydroxypropylcellulose) (HPC)
[21] = dose: 400.0 mg/kg/injection, schedule: Q01DX009 (ip), vehicle: Klucel (hydroxypropylcellulose) (HPC)
[22] = dose: 400.0 mg/kg/injection, schedule: Q04DX003 (ip), vehicle: Klucel (hydroxypropylcellulose) (HPC)

Measured: T/C

O=c1oc(-c2ccccc2)nc2c(Cl)ccc(Cl)c12
inactive: [1] 110 % of control | [2] 105 % of control | dose: 75.0 mg/kg/injection, schedule: Q01DX009 (ip), vehicle: Klucel (hydroxypropylcellulose) (HPC) 102 % of control

CCCCC1C(=O)N(c2ccccc2)N(c2ccccc2)C1=O
inactive: dose: 17.0 mg/kg/injection, schedule: Q01DX Z (ip), vehicle: water 97 % of control | dose: 40.0 mg/kg/injection, schedule: Q01DX Z (ip), vehicle: water 100 % of control | dose: 60.0 mg/kg/injection, schedule: Q01DX Z (ip), vehicle: water 103 % of control | dose: 90.0 mg/kg/injection, schedule: Q01DX Z (ip), vehicle: water 100 % of control | dose: 135.0 mg/kg/injection, schedule: Q01DX Z (ip), vehicle: water 114 % of control

CC1CC(C)(C)CC2(C1)OCCCO2 (centres undefined)
inactive: [3] 90 % of control | [4] 102 % of control | [5] 98 % of control

S=C1SCCS1
inactive: [6] 98 % of control | [7] 95 % of control | [8] 97 % of control

CC(C)=C(Br)CN
inactive: dose: 100.0 mg/kg/injection, schedule: Q04DX003 (ip), vehicle: saline 95 % of control | dose: 200.0 mg/kg/injection, schedule: Q04DX003 (ip), vehicle: saline 108 % of control | dose: 400.0 mg/kg/injection, schedule: Q04DX003 (ip), vehicle: saline 94 % of control

CC(=O)Oc1cc2c3c(c1)-c1c(ccc(OC(C)=O)c1OC(C)=O)CC3NCC2 (centres undefined)
inactive: dose: 3.13 mg/kg/injection, schedule: Q04DX003 (ip), vehicle: DMSO 93 % of control | dose: 6.25 mg/kg/injection, schedule: Q04DX003 (ip), vehicle: DMSO 93 % of control | dose: 12.5 mg/kg/injection, schedule: Q04DX003 (ip), vehicle: DMSO 93 % of control | dose: 25.0 mg/kg/injection, schedule: Q04DX003 (ip), vehicle: DMSO 98 % of control | dose: 50.0 mg/kg/injection, schedule: Q04DX003 (ip), vehicle: DMSO 87 % of control

CSc1ccc(NC(=O)CCCc2ccc(N(CCCl)CCCl)cc2)cc1
inactive: dose: 4.0 mg/kg/injection, schedule: Q12HX018 (ip), vehicle: other 103 % of control | dose: 6.0 mg/kg/injection, schedule: Q12HX018 (ip), vehicle: other 108 % of control | dose: 8.0 mg/kg/injection, schedule: Q12HX018 (ip), vehicle: other 115 % of control

COc1ccc(CN2CCCN(Cc3ccc(OC)cc3OC)C2c2cc(Cl)ccc2O)c(OC)c1
inactive: [9] 95 % of control | [10] 86 % of control | [11] 95 % of control | [12] 86 % of control

COc1ccc2c(c1)c(CC(=O)O)c(C)n2C(=O)c1ccc(Cl)cc1
inactive: [9] 88 % of control | [10] 95 % of control | [11] 95 % of control | [12] 93 % of control

CCCCNC(=O)c1cc(NC(=O)Nc2ccc(C3=NCCN3)cc2)cc(NC(=O)Nc2ccc(C3=NCCN3)cc2)c1
inactive: dose: 8.0 mg/kg/injection, schedule: Q01DX Z (ip), vehicle: carboxymethylcellulose (CMC) 122 % of control | dose: 16.0 mg/kg/injection, schedule: Q01DX Z (ip), vehicle: carboxymethylcellulose (CMC) 117 % of control | dose: 62.0 mg/kg/injection, schedule: Q01DX Z (ip), vehicle: carboxymethylcellulose (CMC) 122 % of control | dose: 125.0 mg/kg/injection, schedule: Q01DX Z (ip), vehicle: carboxymethylcellulose (CMC) 122 % of control | dose: 250.0 mg/kg/injection, schedule: Q01DX Z (ip), vehicle: carboxymethylcellulose (CMC) 110 % of control

O=C(CNC(=O)Nc1nccs1)N/N=C/c1ccc(Cl)cc1
inactive: [3] 106 % of control | [4] 89 % of control

C=CC(=O)NC(=O)/C=C/c1cccnc1
inactive: dose: 100.0 mg/kg/injection, schedule: Q04DX002 (ip), vehicle: Klucel (hydroxypropylcellulose) (HPC) 117 % of control | dose: 200.0 mg/kg/injection, schedule: Q04DX002 (ip), vehicle: Klucel (hydroxypropylcellulose) (HPC) 106 % of control | dose: 400.0 mg/kg/injection, schedule: Q04DX002 (ip), vehicle: Klucel (hydroxypropylcellulose) (HPC) 120 % of control

O=C1C2CCN(CC2)C1CN1CCC(O)(c2ccc(Cl)cc2)CC1 (centres undefined)
inactive: [13] 104 % of control | [14] 101 % of control

CCOc1ccc(O)cc1
inactive: dose: 100.0 mg/kg/injection, schedule: Q04DX002 (ip), vehicle: saline + alcohol 109 % of control | dose: 200.0 mg/kg/injection, schedule: Q04DX002 (ip), vehicle: saline + alcohol 100 % of control

O=C(O)C(Br)Cc1cnc[nH]1 (centres undefined)
inactive: dose: 50.0 mg/kg/injection, schedule: Q01DX009 (ip), vehicle: saline 106 % of control | [15] 106 % of control | [16] 98 % of control

O=c1c(Br)cc(Cl)nc2c(Br)cc(Br)cc12
inactive: dose: 12.0 mg/kg/injection, schedule: Q01DX009 (ip), vehicle: Klucel (hydroxypropylcellulose) (HPC) 103 % of control | [1] 103 % of control | [17] 102 % of control | [2] 96 % of control and 89 % of control | [18] 98 % of control | [13] 93 % of control and 91 % of control

CC1=C(C)CP(C)(=O)C1
inactive: dose: 100.0 mg/kg/injection, schedule: Q04DX003 (ip), vehicle: saline with Tween-80 93 % of control | dose: 200.0 mg/kg/injection, schedule: Q04DX003 (ip), vehicle: saline with Tween-80 91 % of control | dose: 400.0 mg/kg/injection, schedule: Q04DX003 (ip), vehicle: saline with Tween-80 86 % of control

ClCCC[S][Pb]([c]1ccccc1)([c]1ccccc1)[c]1ccccc1
inactive: dose: 25.0 mg/kg/injection, schedule: Q04DX002 (sc), vehicle: olive oil, sesame oil, peanut oil 100 % of control | dose: 50.0 mg/kg/injection, schedule: Q04DX002 (sc), vehicle: olive oil, sesame oil, peanut oil 116 % of control

O=C(Nc1ccc(Br)cc1)Oc1ccc(-c2ccccc2)cc1
inactive: [2] 95 % of control | [19] 95 % of control and 91 % of control | [20] 90 % of control | [21] 86 % of control and 87 % of control

ClCCOCCOc1ccc(C2CCCCC2)cc1
inactive: [15] 106 % of control | [16] 97 % of control | dose: 400.0 mg/kg/injection, schedule: Q01DX009 (ip), vehicle: saline 90 % of control

COc1cc(/C=N\N=C\c2ccc(OC(=O)c3cc(OC)c(OC)c(OC)c3)c(OC)c2)ccc1OC(=O)c1cc(OC)c(OC)c(OC)c1
inactive: [19] 95 % of control | [20] 95 % of control | [21] 102 % of control

O=C1C(=O)c2ccccc2-c2ccccc21.O=C1C(=O)c2ccccc2-c2ccccc21.[Hg]
inactive: dose: 6.25 mg/kg/injection, schedule: Q04DX003 (ip), vehicle: saline with Tween-80 95 % of control

O=C(O)c1ccc(NC(C[N+](=O)[O-])C(F)(F)C(F)(F)C(F)(F)F)cc1 (centres undefined)
inactive: [17] 103 % of control | [18] 93 % of control | [6] 95 % of control | [13] 103 % of control and 115 % of control | [7] 86 % of control | [14] 102 % of control | [8] 88 % of control | [22] 100 % of control

O=C(COc1cccc(Cl)c1)NCc1ccc([N+](=O)[O-])cc1
inactive: dose: 100.0 mg/kg/injection, schedule: Q01DX001 (ip), vehicle: saline with Tween-80 96 % of control | [4] 94 % of control | dose: 200.0 mg/kg/injection, schedule: Q01DX001 (ip), vehicle: saline with Tween-80 93 % of control | [5] 100 % of control | dose: 400.0 mg/kg/injection, schedule: Q01DX001 (ip), vehicle: saline with Tween-80 101 % of control | dose: 400.0 mg/kg/injection, schedule: Q01DX009 (ip), vehicle: saline with Tween-80 97 % of control

Oc1c(Cl)cc(N=Cc2ccc(N(CCCCl)CCCCl)cc2Cl)cc1Cl
inactive: [18] 101 % of control | [13] 104 % of control | [14] 101 % of control | [22] 98 % of control

Nc1nc(N)c(N=C/C=C\c2ccc([N+](=O)[O-])cc2)c(-c2ccccc2)n1
inactive: [9] 113 % of control | [10] 107 % of control | [11] 91 % of control | [12] 103 % of control
